Legend:
Mut MEFs [1] = experiment: mtDNA quantification (qPCR of mitochondrial 12S rRNA and nuclear 18S rRNA genes), MEFs; type: cell-based, mouse; settings: 0.1 μM-1 μM, 6 hours incubation (FIG. 2)
Procedure: DNA extracted from WT and Mut MEFs that were treated or not for 6 hours with 0.1 μM, 1 μM or 10 μM of p8G5 (blue), Pre084 (known SIG-1R agonist, purple), pridopidine (known SIG-1R agonists, green) or NE-100 (known SIG-1R antagonist, yellow) was subjected to qPCR analysis of mitochondrial 12S rRNA and nuclear 18S rRNA genes.

[2] = test system: Mut MEFs (primary fibroblasts from Eif2b5 R132H/R132H mice); experiment: Image-based single cell analysis of ROS level (cellROX); design: species or system mouse; settings: 10 μM, 24 hours incubation, compared with WT level (FIG. 3)
Procedure: Mut MEFs were treated with the indicated compounds at 10 μM for 24 hours followed by staining with fluorogenic dyes and image-based single-cell analysis. Shown is average effect on ROS level from at least 3-independent experiments ±SEM. All values are statistically significant, p<0.02. The extreme SEM points of all values are below the 90% cut-off, therefore the actual average reduction is between 12% and 29%. […] Mut MEFs were incubated or not for 24 hours with 10 μM of the indicated compound, washed and stained with Crystal Violet. Shown is average absorbance at 570 nm normalized (%) to non-treated cells of 3 independent experiments ±SEM, * p=0.0003. […] Mut MEFs were incubated or not for 24 hours with 10 μM of the indicated compound, washed and stained with JC1 and Hoechst followed by image-based single-cell analysis. […]
To assay the compounds, cellROX, a reactive oxygen species (ROS) fluorescent detector and a preferred in-situ mitochondrial content detector, was used for single cell-based imaging analysis as detailed previously (Raini et al., 2017). […] Compounds toxicity was evaluated by testing cell survival following 24 hours incubation with 10 μM of each compound using crystal violet staining (FIG. 14B). […] The other 19 compounds were not toxic; therefore, maximal working concentrations tolerated by the cells were further evaluated (Table 3 hereinbelow).

Sig-1R = Sig-1R (Homo sapiens, UniProt Q99720); experiment: Competitive displacement binding assay with [3H]haloperidol (Eurofins); settings: 10 μM compound
Procedure: Following, the direct binding of p8G5 to Sig-1R, was tested in-vitro by Eurofins labs (www(dot)cerep(dot)fr/cerep/users/pages/catalog/Affiche_CondExp_Test(dot)asp?test=889).

Mut MEFs [3] = experiment: Oxygen consumption (Seahorse XF Cell Mito Stress Test), MEFs; type: cell-based, mouse; settings: for basal and ATP-linked respiration rate per mitochondrial DNA content: 6 hours (FIGS. 8A-B)
Procedure: Mut MEFs were treated or not for 6 hours with the indicated concentrations of the indicated Sig-1R binders. Oxygen consumption was measured in a XF96 Extracellular Flux Analyzer using the Seahorse XF Cell Mito Stress Test Kit. The Basal respiration (FIG. 7A) and ATP-linked respiration (FIG. 7B) data were normalized to biomass as determined by Crystal Violet staining.
Mut MEFs were treated or not for 6 hours with the indicated concentrations of the indicated Sig-1R binders. Oxygen consumption was measured in a XF96 Extracellular Flux Analyzer using the Seahorse XF Cell Mito Stress Test Kit. The Basal respiration (FIG. 8A), ATP-linked respiration (FIG. 8B) and maximal respiration (FIG. 8C) data was normalized to mtDNA content as detailed in FIG. 2.
The data were normalized to cell number, obtained by Crystal Violet staining, or to mtDNA content.

Mut MEFs [4] = experiment: Cell survival assay, Crystal violet staining, Mut MEFs; type: cell-based, mouse; settings: for Survival (%) ± SEM Mut MEFs: 24 hours, untreated cells set to 100%
Procedure: Cells were seeded on 96-wells plate at a density of 5000 cells per well. Astrocytes were seeded following coating with 0.001% PDL.

Mut MEFs [5] = experiment: TMRE staining, flow cytometry; type: cell-based, mouse; settings: 1 μM, 6 hours (FIGS. 5A-B)
Procedure: Mut MEFs were treated or untreated with the indicated concentrations of the indicated Sig-1R binders for 6 hours, stained by TMRE for 30 minutes and analyzed by flow cytometry. Shown are flow cytometry histograms and bar graphs representing % mean TMRE fluorescence intensity relative to non-treated WT cells of a representative experiment.
MEFs were seeded at a density of 4×10^4 cells per well in a 24-wells plate. 24 hours post-plating the cells were incubated with the tested compounds for additional 6 hours followed by staining with 200 nM Tetra-Methyl-Rhodamine-Ethyl esterperchlorate (TMRE) (Abcam) for 30 minutes at 37° C. Cells were removed by trypsinyzation, washed and resuspended in PBS. 5-10×10^3 cells were analyzed by Stratedigm S1000EXi cell sorter and FlowJo software (FLOWJO, LLC, Ashland, Oreg., USA).

Sequence of Sig-1R (Q99720 whole entry): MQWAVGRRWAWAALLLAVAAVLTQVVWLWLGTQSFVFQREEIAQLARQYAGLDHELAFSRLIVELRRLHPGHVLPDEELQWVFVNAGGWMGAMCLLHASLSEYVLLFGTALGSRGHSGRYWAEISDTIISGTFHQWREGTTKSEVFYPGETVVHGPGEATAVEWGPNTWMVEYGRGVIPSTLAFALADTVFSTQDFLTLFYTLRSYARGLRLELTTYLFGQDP

inhibition at 10 µM (Sig-1R): 92%
SMILES: Cc1cccc(OCCCCCN2CCOCC2)c1 [H8 (p8G5), 4-[5-(3-methylphenoxy)pentyl]morpholine]
mitochondrial content in Mut MEFs (Mut MEFs [1]): lowered the abnormal high mitochondrial content
level of ROS (CellROX) in Mut cells [2]: corrected the abnormal level of ROS
maximal respiration rate per mitochondrial content (Mut MEFs [3]; 1 μM, 6 hours (FIG. 8C)): increased the maximal respiration capacity per mitochondria to the level of untreated WT cells
basal and ATP-linked respiration rate per mitochondrial DNA content (Mut MEFs [3]; 1 μM): brought both parameters to WT levels
basal and ATP-linked respiration rate per mitochondrial DNA content (Mut MEFs [3]): statistically significant increase
basal respiration and ATP-linked respiration per cell (OCR) (Mut MEFs [3]; 6 hours, normalized to biomass (FIGS. 7A-B)): no effect
Survival (%) ± SEM Mut MEFs (Mut MEFs [4]; 0.1 μM): 104 ± 4.6%
Survival (%) ± SEM Mut MEFs (Mut MEFs [4]; 1 μM): 102 ± 3.3%
Survival (%) ± SEM Mut MEFs (Mut MEFs [4]; 10 μM): 99 ± 2.6%
Survival (%) ± SEM Mut MEFs (Mut MEFs [4]; 30 μM): 105 ± 13%
effect on survival of Mut cells (Mut MEFs [4]; as high as 30 μM (FIG. 4, Table 3)): did not have any negative effect on the survival
TMRE staining (mitochondrial membrane potential) (Mut MEFs [5]): increased TMRE staining to a level above that of untreated WT cells

Source: patent US20200061076A1, “METHODS OF TREATING LEUKODYSTROPHIES” (Ramot at Tel-Aviv University Ltd., priority 2017, published 2020)
